Measured values as given in paper PMC6199744, “Development of Chemical Proteomics for the Folateome and Analysis of the Kinetoplastid Folateome” (ACS Infectious Diseases, 2018).
Where two headings read alike, the source gives them in different places.

What was measured:
Assay type in all cases: binding
[1] = molecular target: T1, HeLa cell extract proteins (Homo sapiens, UniProt P15559)
T1 construct: endogenous in cells; host or cells: HeLa cell extract

[2] = molecular target: T2, HeLa cell extract proteins (Homo sapiens, UniProt Q9NYU2)
T2 construct: endogenous in cells; host or cells: HeLa cell extract

[3] = molecular target: T3, HeLa cell extract proteins (Homo sapiens, UniProt P26641)
T3 construct: endogenous in cells; host or cells: HeLa cell extract
T3 sequence (P26641 whole entry): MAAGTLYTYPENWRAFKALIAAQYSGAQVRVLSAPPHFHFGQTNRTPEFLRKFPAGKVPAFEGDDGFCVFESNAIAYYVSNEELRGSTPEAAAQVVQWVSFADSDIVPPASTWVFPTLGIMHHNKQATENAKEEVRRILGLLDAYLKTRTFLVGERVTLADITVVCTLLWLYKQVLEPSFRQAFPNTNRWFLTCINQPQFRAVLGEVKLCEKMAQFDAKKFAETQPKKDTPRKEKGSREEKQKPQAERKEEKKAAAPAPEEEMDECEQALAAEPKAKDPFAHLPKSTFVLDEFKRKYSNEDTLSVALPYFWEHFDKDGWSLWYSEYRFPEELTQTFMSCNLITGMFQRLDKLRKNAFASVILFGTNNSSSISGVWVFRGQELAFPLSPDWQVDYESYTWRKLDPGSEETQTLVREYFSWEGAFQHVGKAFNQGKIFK

[4] = molecular target: T4, HeLa cell extract proteins (Homo sapiens, UniProt Q5T8D3)
T4 construct: endogenous in cells; host or cells: HeLa cell extract
T4 sequence (Q5T8D3 1-534): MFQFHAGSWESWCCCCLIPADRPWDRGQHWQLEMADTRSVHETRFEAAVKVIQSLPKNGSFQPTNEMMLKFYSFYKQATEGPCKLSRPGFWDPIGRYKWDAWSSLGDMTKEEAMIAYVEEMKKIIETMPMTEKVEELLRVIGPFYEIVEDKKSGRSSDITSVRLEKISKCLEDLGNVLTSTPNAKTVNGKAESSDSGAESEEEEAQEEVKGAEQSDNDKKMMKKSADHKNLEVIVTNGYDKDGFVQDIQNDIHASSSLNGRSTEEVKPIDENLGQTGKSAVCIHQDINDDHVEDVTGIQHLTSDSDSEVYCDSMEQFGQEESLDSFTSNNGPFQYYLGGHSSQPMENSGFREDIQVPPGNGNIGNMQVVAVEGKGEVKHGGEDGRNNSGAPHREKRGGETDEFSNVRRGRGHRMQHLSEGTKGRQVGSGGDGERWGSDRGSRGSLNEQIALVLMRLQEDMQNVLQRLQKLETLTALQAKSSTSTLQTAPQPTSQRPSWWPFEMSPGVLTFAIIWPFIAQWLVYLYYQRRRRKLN

[5] = molecular target: T5, HeLa cell extract proteins (Homo sapiens, UniProt Q96BY9)
T5 construct: endogenous in cells; host or cells: HeLa cell extract
T5 sequence (Q96BY9 31-339): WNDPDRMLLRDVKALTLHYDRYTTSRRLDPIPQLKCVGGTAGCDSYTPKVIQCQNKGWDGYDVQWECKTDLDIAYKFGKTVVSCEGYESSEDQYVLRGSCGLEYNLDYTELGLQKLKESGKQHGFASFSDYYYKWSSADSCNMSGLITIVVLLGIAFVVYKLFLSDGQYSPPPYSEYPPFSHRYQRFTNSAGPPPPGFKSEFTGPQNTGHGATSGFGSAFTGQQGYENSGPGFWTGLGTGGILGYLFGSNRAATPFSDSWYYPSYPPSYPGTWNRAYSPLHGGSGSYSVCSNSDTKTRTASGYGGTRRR

[6] = molecular target: T6, HeLa cell extract proteins (Homo sapiens, UniProt P33992)
T6 construct: endogenous in cells; host or cells: HeLa cell extract
T6 sequence (P33992 1-734): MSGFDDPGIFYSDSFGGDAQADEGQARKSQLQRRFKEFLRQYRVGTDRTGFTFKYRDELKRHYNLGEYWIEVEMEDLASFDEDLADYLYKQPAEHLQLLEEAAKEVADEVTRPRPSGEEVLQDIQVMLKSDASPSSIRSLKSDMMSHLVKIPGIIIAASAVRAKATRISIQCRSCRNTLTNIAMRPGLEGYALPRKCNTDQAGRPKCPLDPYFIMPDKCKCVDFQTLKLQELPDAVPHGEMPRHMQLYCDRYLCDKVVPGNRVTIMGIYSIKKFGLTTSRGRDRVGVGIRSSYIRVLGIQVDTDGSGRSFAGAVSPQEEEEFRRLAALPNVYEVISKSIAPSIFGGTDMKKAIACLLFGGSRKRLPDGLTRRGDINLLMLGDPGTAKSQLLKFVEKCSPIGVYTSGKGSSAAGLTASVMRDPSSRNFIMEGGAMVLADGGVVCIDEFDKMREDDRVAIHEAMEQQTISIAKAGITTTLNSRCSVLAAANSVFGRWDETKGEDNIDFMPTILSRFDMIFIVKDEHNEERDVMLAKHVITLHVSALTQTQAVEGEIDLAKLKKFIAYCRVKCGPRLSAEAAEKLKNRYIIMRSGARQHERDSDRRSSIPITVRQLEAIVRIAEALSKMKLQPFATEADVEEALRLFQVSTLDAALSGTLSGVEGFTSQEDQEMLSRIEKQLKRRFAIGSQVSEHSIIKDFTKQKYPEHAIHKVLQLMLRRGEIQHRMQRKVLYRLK

[7] = molecular target: T7, HeLa cell extract proteins (Homo sapiens, UniProt P07237)
T7 construct: endogenous in cells; host or cells: HeLa cell extract
T7 sequence (P07237 18-508): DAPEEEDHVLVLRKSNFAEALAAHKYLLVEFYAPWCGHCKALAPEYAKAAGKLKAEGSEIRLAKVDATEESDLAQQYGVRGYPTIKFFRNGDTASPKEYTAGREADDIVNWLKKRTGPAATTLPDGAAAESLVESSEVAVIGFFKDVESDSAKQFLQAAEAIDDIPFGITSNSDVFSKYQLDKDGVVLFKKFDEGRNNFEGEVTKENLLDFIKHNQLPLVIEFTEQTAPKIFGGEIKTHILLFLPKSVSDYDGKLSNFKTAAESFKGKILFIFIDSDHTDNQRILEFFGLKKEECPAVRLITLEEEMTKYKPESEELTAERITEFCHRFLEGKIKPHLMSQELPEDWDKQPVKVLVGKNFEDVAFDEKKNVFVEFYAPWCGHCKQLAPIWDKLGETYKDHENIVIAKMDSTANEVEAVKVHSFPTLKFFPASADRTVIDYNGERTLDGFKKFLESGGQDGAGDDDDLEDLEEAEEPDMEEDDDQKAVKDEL

[8] = molecular target: T8, HeLa cell extract proteins (Homo sapiens, UniProt P62979)
T8 construct: endogenous in cells; host or cells: HeLa cell extract

[9] = molecular target: T9, HeLa cell extract proteins (Homo sapiens, UniProt P17844)
T9 construct: endogenous in cells; host or cells: HeLa cell extract
T9 sequence (P17844 whole entry): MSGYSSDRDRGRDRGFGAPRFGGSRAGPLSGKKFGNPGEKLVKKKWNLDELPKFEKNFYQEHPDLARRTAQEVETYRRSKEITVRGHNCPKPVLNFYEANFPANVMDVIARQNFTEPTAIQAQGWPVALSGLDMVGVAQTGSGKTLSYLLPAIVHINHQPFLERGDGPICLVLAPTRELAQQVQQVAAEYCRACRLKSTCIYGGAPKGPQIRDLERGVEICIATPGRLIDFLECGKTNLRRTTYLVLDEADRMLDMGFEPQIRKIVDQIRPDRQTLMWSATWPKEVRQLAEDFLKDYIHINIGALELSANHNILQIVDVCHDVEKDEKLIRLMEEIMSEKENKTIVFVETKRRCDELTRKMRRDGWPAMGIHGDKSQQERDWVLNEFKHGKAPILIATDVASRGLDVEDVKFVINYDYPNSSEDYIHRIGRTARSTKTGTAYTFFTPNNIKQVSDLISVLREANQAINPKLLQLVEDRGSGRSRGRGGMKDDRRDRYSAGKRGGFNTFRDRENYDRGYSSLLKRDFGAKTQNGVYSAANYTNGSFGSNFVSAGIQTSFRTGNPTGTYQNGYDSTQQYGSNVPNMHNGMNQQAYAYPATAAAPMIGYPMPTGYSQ

[10] = molecular target: T10, HeLa cell extract proteins (Homo sapiens, UniProt P62633)
T10 construct: endogenous in cells; host or cells: HeLa cell extract
T10 sequence (P62633 whole entry): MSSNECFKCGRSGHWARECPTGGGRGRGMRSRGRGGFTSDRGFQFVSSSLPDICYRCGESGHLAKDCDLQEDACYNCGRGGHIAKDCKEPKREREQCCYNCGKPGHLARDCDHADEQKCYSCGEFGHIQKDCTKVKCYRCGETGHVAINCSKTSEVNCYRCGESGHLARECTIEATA

[11] = molecular target: T11, HeLa cell extract proteins (Homo sapiens, UniProt P09496)
T11 construct: endogenous in cells; host or cells: HeLa cell extract
T11 sequence (P09496 1-248): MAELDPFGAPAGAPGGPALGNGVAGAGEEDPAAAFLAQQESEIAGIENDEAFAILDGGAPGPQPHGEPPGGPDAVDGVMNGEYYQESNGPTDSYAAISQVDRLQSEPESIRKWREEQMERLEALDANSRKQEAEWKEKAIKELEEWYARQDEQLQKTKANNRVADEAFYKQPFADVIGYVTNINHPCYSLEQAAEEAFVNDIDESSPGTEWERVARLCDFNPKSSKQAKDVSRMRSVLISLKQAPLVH

[12] = molecular target: T12, HeLa cell extract proteins (Homo sapiens, UniProt P63208)
T12 construct: endogenous in cells; host or cells: HeLa cell extract
T12 sequence (P63208 whole entry): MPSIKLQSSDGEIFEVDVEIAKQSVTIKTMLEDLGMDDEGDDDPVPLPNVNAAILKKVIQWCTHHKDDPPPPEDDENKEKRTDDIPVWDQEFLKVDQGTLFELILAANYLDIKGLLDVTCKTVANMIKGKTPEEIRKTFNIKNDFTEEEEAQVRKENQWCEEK

[13] = molecular target: T13, HeLa cell extract proteins (Homo sapiens, UniProt P36639)
T13 construct: endogenous in cells; host or cells: HeLa cell extract

[14] = molecular target: T14, HeLa cell extract proteins (Homo sapiens, UniProt P46940)
T14 construct: endogenous in cells; host or cells: HeLa cell extract
T14 sequence (P46940 whole entry): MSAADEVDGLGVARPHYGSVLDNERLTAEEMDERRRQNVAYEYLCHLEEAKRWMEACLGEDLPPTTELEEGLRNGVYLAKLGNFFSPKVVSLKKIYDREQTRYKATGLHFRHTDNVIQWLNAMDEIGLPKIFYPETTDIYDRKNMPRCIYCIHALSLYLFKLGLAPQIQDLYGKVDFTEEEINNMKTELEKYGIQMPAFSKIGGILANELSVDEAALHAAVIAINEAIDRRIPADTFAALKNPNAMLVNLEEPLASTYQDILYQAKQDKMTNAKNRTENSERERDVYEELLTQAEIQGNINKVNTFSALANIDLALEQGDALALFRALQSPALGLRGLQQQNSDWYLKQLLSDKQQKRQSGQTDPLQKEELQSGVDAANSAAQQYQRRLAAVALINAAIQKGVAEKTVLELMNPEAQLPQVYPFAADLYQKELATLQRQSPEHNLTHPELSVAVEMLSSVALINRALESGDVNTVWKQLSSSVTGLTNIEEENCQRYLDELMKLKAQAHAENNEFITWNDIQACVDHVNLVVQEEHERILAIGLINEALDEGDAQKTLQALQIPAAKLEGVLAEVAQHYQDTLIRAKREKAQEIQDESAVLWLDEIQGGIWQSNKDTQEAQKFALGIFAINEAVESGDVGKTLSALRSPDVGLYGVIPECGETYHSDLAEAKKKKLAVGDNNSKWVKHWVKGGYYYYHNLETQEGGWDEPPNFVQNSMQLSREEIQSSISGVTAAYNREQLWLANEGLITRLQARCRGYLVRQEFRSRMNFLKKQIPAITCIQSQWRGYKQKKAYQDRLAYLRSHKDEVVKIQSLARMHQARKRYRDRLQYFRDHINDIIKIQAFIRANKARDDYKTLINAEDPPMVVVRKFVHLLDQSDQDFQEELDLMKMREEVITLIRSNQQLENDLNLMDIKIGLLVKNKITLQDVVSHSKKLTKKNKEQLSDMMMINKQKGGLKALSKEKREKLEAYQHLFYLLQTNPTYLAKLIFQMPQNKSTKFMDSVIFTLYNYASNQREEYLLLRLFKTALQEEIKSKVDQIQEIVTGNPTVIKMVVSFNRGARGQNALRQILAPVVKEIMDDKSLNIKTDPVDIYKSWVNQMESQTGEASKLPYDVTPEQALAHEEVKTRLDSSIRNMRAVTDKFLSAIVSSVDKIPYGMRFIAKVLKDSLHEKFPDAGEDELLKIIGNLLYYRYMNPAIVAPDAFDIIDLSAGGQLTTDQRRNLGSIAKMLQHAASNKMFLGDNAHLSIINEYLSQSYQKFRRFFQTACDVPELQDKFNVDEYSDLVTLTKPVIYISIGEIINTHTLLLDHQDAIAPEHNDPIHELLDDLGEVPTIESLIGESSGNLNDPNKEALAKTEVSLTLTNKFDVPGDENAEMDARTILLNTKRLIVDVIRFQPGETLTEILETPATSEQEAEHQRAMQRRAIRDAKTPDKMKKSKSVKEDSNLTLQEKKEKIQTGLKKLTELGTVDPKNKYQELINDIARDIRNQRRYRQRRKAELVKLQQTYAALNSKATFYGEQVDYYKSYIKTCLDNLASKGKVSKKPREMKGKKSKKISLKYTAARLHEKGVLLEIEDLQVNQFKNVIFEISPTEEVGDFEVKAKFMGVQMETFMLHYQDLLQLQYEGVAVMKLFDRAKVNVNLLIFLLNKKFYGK

[15] = molecular target: T15, HeLa cell extract proteins (Homo sapiens, UniProt P49189)
T15 construct: endogenous in cells; host or cells: HeLa cell extract
T15 sequence (P49189 whole entry): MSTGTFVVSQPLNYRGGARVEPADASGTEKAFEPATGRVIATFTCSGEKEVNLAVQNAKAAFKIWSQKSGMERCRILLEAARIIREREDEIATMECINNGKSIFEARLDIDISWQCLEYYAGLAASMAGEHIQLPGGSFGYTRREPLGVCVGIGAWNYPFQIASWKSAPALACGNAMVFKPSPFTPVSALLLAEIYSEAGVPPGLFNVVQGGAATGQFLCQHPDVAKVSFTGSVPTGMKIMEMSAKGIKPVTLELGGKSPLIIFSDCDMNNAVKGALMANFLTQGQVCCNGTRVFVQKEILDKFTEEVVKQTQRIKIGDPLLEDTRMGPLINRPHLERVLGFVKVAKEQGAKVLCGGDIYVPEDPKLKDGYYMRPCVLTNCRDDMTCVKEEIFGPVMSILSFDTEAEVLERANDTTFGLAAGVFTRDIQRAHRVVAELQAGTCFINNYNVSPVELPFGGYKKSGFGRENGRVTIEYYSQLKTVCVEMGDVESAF

T1 sequence (P15559 whole entry): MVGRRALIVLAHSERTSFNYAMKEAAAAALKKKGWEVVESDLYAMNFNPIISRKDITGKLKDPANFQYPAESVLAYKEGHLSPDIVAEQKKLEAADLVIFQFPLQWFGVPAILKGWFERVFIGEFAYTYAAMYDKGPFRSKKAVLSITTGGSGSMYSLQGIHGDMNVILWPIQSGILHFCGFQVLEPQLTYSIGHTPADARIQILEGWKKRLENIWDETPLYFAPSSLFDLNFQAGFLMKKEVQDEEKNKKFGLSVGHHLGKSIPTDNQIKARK

Row | Compound | fold changes relative to vehicle control [8] | fold changes relative to vehicle control ([1]; HeLa, protein NQO1) | fold changes relative to vehicle control ([2]; protein UGCGL1, HeLa) | fold changes relative to vehicle control ([3]; protein EEF1G, HeLa) | fold changes relative to vehicle control ([4]; HeLa, protein ACBD5) | fold changes relative to vehicle control ([5]; protein TMEM66, HeLa) | fold changes relative to vehicle control ([6]; protein MCM5, HeLa) | fold changes relative to vehicle control ([7]; protein P4HB, HeLa) | fold changes relative to vehicle control ([8]; protein RPS27A, HeLa) | fold changes relative to vehicle control ([9]; HeLa, protein DDX5) | fold changes relative to vehicle control ([10]; protein CNBP, HeLa) | fold changes relative to vehicle control ([11]; HeLa, protein CLTA) | fold changes relative to vehicle control ([12]; captured protein SKP1, HeLa) | fold changes relative to vehicle control ([13]; captured protein NUDT1, HeLa) | fold changes relative to vehicle control ([14]; protein IQGAP1, HeLa) | fold changes relative to vehicle control ([15]; protein ALDH9A1, HeLa) | further results
1 | Nc1nc2c(c(=O)[nH]1)N(C=O)C(CNc1ccc(C(=O)N[C@@H](CCC(=O)O)C(=O)O)cc1)CN2 (stereo partly drawn) [LEU, leucovorin] | 1.29 |  |  |  |  |  |  |  |  |  |  |  |  |  |  |  | fold changes relative to vehicle control ([1]; protein NQO1, HeLa): 1.12; fold changes relative to vehicle control ([2]; HeLa, protein UGCGL1): 1.09; fold changes relative to vehicle control ([3]; HeLa, protein EEF1G): 1; fold changes relative to vehicle control ([4]; HeLa, captured protein ACBD5): 1.01; fold changes relative to vehicle control ([5]; HeLa, protein TMEM66 (TRA[…] 66 PRECURSOR)): 1.06; fold changes relative to vehicle control ([6]; HeLa, protein MCM5): 0.94; fold changes relative to vehicle control ([7]; HeLa, protein P4HB): 0.96; fold changes relative to vehicle control ([9]; HeLa, protein DDX5 (PROBABLE ATP-DEPENDENT RNA HELICASE DDX5)): 0.88; fold changes relative to vehicle control ([10]; HeLa, captured protein CNBP): 0.98; fold changes relative to vehicle control ([11]; HeLa, captured protein CLTA): 1.19; fold changes relative to vehicle control ([12]; HeLa, captured protein SKP1): 1.09; fold changes relative to vehicle control ([13]; protein NUDT1, HeLa): 1.19; fold changes relative to vehicle control ([14]; HeLa, protein IQGAP1): 1.02; fold changes relative to vehicle control ([15]; HeLa, captured protein ALDH9A1): 0.9
2 | Nc1nc2[nH]cc(CCc3ccc(C(=O)N[C@@H](CCC(=O)O)C(=O)O)cc3)c2c(=O)[nH]1 [PTX, pemetrexed] | 1.29 |  |  |  |  |  |  |  |  |  |  |  |  |  |  |  | fold changes relative to vehicle control [1]: 0.92; fold changes relative to vehicle control [2]: 1.02; fold changes relative to vehicle control [3]: 1.05; fold changes relative to vehicle control [4]: 0.88; fold changes relative to vehicle control [5]: 0.92; fold changes relative to vehicle control [6]: 1.12; fold changes relative to vehicle control [7]: 1.03; fold changes relative to vehicle control [9]: 0.82; fold changes relative to vehicle control [10]: 1.14; fold changes relative to vehicle control [11]: 1.55; fold changes relative to vehicle control [12]: 1.13; fold changes relative to vehicle control [13]: 0.36; fold changes relative to vehicle control [14]: 1.08; fold changes relative to vehicle control [15]: 1.02
3 | CCCCCCOc1ccc(Cc2cnc(N)nc2N)cc1 [compound 1] |  | 1.12 | 0.99 | 1.31 | 1.13 | 1.16 | 1.04 | 1.31 | 1.24 | 0.92 | 1.26 | 0.68 | 1.04 | 1.02 | 0.99 | 1 | 
4 | CCCCCCOc1cccc(Cc2cnc(N)nc2N)c1 [compound 2] |  | 1.22 | 1.22 | 1.67 | 1.13 | 1.29 | 1.41 | 1.79 | 1.5 | 1.12 | 1.8 | 0.99 | 1.21 | 0.11 | 1.69 | 1.01 | 
5 | Nc1nc2cccc(-c3ccccc3)c2n1Cc1ccc(Cl)c(Cl)c1 [compound 3] |  | 1.13 | 1.05 | 0.94 | 0.92 | 0.98 | 0.93 | 1 | 1.01 | 0.9 | 0.83 | 1.09 | 0.87 | 0.62 | 0.93 | 1.08 | 
